Assay results: US7071197B2, “N,N-disubstituted diazocycloalkanes” (Recordati S.A., priority 2002, dated 2006)

Columns and labels:
human α1d-adrenoceptor = target: T1, human α1d-adrenoceptor (Homo sapiens, UniProt P25100); assay: [3H]prazosin binding to cloned human α1-adrenoceptor subtypes (α1d); conditions: for Ki: [3H]prazosin, CHO cell membranes, read-out: Binding affinity (Ki, nM) α1d; for α1d/S-HT1A: selectivity: ratio of Ki at α1d and Ki at 5-HT1A
T1 construct: expressed in transfected cells
T1 sequence (P25100 1-572): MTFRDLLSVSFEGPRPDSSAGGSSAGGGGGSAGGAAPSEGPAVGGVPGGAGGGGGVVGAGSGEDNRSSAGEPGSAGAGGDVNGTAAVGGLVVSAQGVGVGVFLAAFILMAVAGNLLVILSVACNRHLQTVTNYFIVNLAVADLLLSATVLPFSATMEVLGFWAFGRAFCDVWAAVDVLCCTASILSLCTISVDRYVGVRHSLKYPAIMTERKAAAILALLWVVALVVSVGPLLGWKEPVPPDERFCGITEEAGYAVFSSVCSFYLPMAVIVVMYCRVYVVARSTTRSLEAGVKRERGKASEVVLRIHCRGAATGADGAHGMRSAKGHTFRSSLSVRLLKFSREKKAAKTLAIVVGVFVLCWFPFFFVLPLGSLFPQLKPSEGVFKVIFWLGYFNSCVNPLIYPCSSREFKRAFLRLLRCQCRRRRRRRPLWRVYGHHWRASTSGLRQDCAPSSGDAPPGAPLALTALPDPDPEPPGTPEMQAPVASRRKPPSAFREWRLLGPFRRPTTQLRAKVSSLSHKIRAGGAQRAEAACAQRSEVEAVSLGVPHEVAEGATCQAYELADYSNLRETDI
Experimental: Binding to cloned human α1-adrenoceptor subtypes was performed in membranes from CHO cells (chinese hamster ovary cells) transfected by electroporation with DNA expressing the gene encoding each α1-adrenoceptor subtype. Cloning and stable expression of the human α1-adrenoceptor gene was performed as previously described (Testa et al. Pharmacol. Comm., 6: 79–86,1995).
CHO cells were grown in suspension in Iscove's modified Dulbecco's medium, supplemented with 10% fetal calf serum and gentamicin (50 μg/ml), at 37° C. in 7% CO2 in an humidified incubator. Cells were collected by centrifugation, lised in ice-cold Tris 5 mM and EDTA 5 mM buffer (pH 7.4) and gently homogenised. Homogenates were centrifuged at 40000×g×20 min and pellets were resuspended in a small volume of ice-cold Tris 5 mM and EDTA 5 mM buffer (pH 7.4) and immediately frozen and stored at −80° C. until use.
CHO cell membranes were resuspended and incubated in 50 mM Tris, pH 7.4, with 0.2 nM [^3H]prazosin, in a final volume of 1.02 ml for 30 min at 25° C., in absence or presence of competing drugs. Non-specific binding was determined in the presence of 10 μM phentolamine. The incubation was stopped by rapid filtration through 0.2% polyethyleneimine pretreated Schleicher & Schuell GF52 filters using a Tomtec (PerkinElmer) cell harvester. The filters were washed with 3×1 ml of ice-cold Tris buffer, dried and the radioactivity was measured in a Betaplate (Wallac) liquid scintillation counter.
The inhibition of specific binding by the compounds was analysed to estimate the IC50 value by the non-linear curve-fitting program Allfit (De Lean et al. Am. J. Physiol. 235, E97-E102, 1978). The IC50 value is converted to an affinity constant (Ki) by the equation of Cheng & Prusoff (Biochem. Pharmacol. 22: 3099–3108, 1973).

[1] = target: T2, human cloned 5-HT1A receptors (Homo sapiens, UniProt P08908); assay: [35S]GTPγS binding, membranes of HeLa cells transfected with human cloned 5-HT1A receptors; assay type: biochemical; conditions: 5-HT maximal stimulation taken as 100%
T2 construct: expressed in transfected cells
T2 sequence (P08908 1-422): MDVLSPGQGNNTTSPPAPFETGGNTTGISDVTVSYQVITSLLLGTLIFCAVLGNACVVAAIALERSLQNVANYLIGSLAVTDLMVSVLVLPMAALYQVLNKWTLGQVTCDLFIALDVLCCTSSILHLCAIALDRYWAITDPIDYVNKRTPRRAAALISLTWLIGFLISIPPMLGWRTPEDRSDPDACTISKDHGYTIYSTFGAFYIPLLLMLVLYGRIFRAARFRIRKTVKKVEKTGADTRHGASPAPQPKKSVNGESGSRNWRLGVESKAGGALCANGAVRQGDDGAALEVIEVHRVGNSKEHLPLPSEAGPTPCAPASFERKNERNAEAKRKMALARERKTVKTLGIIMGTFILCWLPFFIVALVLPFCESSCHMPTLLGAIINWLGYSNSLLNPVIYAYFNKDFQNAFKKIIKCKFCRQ
Experimental: A genomic clone coding for the human 5HT1A-serotonergic receptor was stably transfected in a human cell line (HeLa). HeLa cells were grown as monolayers in Dulbecco's modified Eagle medium (DMEM), containing 10% fetal bovine serum, gentamycin (0.1 mg/ml) and 5% carbon dioxide, at 37° C. The cells were detached from the growth flask at 95% confluence by a cell scraper and were lysed in cold 5 mM Tris and 5 mM EDTA buffer (pH 7.4). The homogenates were centrifuged at 40000×g×20 minutes and the pellets were resuspended in a small volume of cold 5 mM Tris and 5 mM EDTA buffer (pH 7.4) and immediately frozen and stored at −70° C. until use.
[^35S]GTPγS binding: on the experimental day, cell membranes from HeLa cells transfected with human cloned 5-HT1A receptors were resuspended in buffer pH 7.4 containing 20 mM HEPES, 3 mM MgCl2 and 120 mM NaCl (Stanton, J. A.; Beer, M. S. Eur. J. Pharmacol. 320, 267–275, 1997). The membranes were incubated with 10 μM GDP and decreasing concentrations of test drugs (from 100 μM to 0.1 nM) or decreasing concentrations of 5-HT (from 100 μM to 0.1 nM, reference curve) for 20 min at 30° C. in a final volume of about 0.25 ml. [^35S]GTPγS ([…] in 10 μl) was added to samples and incubated for a further 30 min at 30° C. Non-specific binding was determined in the presence of 10 μM GTPγS. The incubation was stopped by addition of ice-cold HEPES buffer and rapid filtration on Unifilter GF/C filters, using a Filtermate cell harvester (Packard). The filters were washed four times with total 1.2 ml of same buffer. Radioactivity was counted by liquid scintillation spectrometry with efficiency >90% (TopCount Packard). Stimulation of [^35S]GTPγS binding induced by the compounds tested was espressed as % increase in binding above basal value, being the maximal stimulation observed with 5-HT taken as 100%. The concentration-response curve of the agonistic activity was analyzed by non linear fitting program (De Lean et al., Am. J. Physiol. 235, E97-E102, 1978).
A stimulation of [^35S]GTPγS binding represented the functional correlate of the binding of an agonist compound at the 5-HT1A receptors. Stimulation induced by the endogenous ligand 5-HT was considered the maximal stimulation attainable.

SMILES: COc1ccccc1N1CCN(CC[C@H](c2ccccc2F)[C@@H](O)C2CCCCC2)CC1 [Ex. 1Y, 1-[(3R,4S)-4-cyclohexyl-4-hydroxy-3-(2-fluorophenyl)-butyl]-4-(2-methoxyphenyl)-piperazine]
- Ki (human α1d-adrenoceptor): 1.2 nM
- α1d/S-HT1A (human α1d-adrenoceptor): 3.2
- Functional effect ([35S]GTPγS binding) [1]: Neutral antagonist

SMILES: COc1ccccc1N1CCN(CC[C@@H](c2ccccc2F)[C@H](O)C2CCCCC2)CC1 (racemic) [Ex. 1, 1-[(SR-RS)-4-cyclohexyl-4-hydroxy-3-(2-fluorophenyl)-butyl]-4-(2-methoxyphenyl)-piperazine]
- Ki (human α1d-adrenoceptor): 1 nM
- α1d/S-HT1A (human α1d-adrenoceptor): 7.7
- Functional effect ([35S]GTPγS binding) [1]: Neutral antagonist

SMILES: COc1ccccc1N1CCN(CC[C@H](c2ccccc2)[C@@H](O)C2CCCCC2)CC1 (racemic) [Ex. 5, 1-[(RS,SR)-4-Cyclohexyl-4-hydroxy-3-phenyl-butyl]-4-(2-methoxyphenyl)-piperazine, reference compound]
- Ki (human α1d-adrenoceptor): 0.5 nM
- α1d/S-HT1A (human α1d-adrenoceptor): 0.8
- Functional effect ([35S]GTPγS binding) [1]: Neutral antagonist

SMILES: COc1ccccc1N1CCN(CC[C@H](c2ccccc2F)[C@H](O)C2CCCCC2)CC1 [Ex. 2X, 1-[(3R,4R)-4-cyclohexyl-4-hydroxy-3-(2-fluorophenyl)-butyl]-4-(2-methoxyphenyl)-piperazine]
- Ki (human α1d-adrenoceptor): 0.5 nM
- α1d/S-HT1A (human α1d-adrenoceptor): 2.1
- Functional effect ([35S]GTPγS binding) [1]: Neutral antagonist
